Test systems include A498 renal; BT-549 breast; HCC-2998 colon; HT29 colon; LOX IMVI melanoma; MCF7 breast; NCI-H23 lung; NCI-H522 lung; SF-539 CNS; TK-10 renal.
Test in all cases: DTP human tumour cell line panel, 48 h

SMILES strings stand for the structures. Several values for one entry are separate records, joined by “and”; a condition that tells them apart may be missing. Identical values can stand only once.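 48-hour exposure; five concentrations; linearly interpolated endpoints. The concentration for 50% growth inhibition is given as GI50. TGI: total growth inhibition.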

Among the data in PubChem BioAssay (NCI) are TGI and GI50 values, retold here.

On to `COc1ccc2[nH]c3c(C)c4c(c(C)c3c2c1)CN(C)C=C4`, for which the TGI was 21.3 µM in the assay on A498 renal; 4.41 µM with BT-549 breast; 13.9 µM in the assay with HCC-2998 colon; 22.3 µM in the assay with HT29 colon; 28.1 µM with LOX IMVI melanoma; over 100 µM in the assay on MCF7 breast. Also, the TGI in the assay on NCI-H23 lung was 3.28 µM; with NCI-H522 lung it was 6.34 µM; in the assay on SF-539 CNS it was 2 µM; with TK-10 renal, 65.8 µM.
With `O=C1OC(c2ccc([N+](=O)[O-])cc2)=N/C1=C\c1ccc(Cl)cc1`, the TGI in the assay on A498 renal, in the assay with BT-549 breast, in the assay with HCC-2998 colon, with HT29 colon, in the assay with LOX IMVI melanoma and in the assay on MCF7 breast was over 100 µM in each case. Moreover, the TGI with NCI-H23 lung, in the assay on NCI-H522 lung, in the assay on SF-539 CNS and in the assay with TK-10 renal was over 100 µM each time.
For the molecule `O=C(O)CCCN1C(=O)/C(=C/C(Cl)=C/c2ccccc2)SC1=S`, the GI50 in the assay with A498 renal is 1.96 µM; in the assay on BT-549 breast, 1.91 µM; in the assay on HCC-2998 colon, 1.83 µM; with HT29 colon, 2.85 µM; in the assay with LOX IMVI melanoma it was 0.383 µM; with MCF7 breast, 0.6 µM. The GI50 was 2.34 µM with NCI-H23 lung, 2.21 µM in the assay on NCI-H522 lung, 1.98 µM in the assay with SF-539 CNS and 3.73 µM in the assay on TK-10 renal. In addition, the concentration for total growth inhibition (TGI) in the assay with A498 renal was found to be 3.57 µM; in the assay on BT-549 breast, 4.8 µM; with HCC-2998 colon it was 3.41 µM; in the assay with HT29 colon it was 10.6 µM; in the assay on LOX IMVI melanoma, 1.38 µM; in the assay with MCF7 breast it was 11.4 µM. Besides, the TGI in the assay with NCI-H23 lung is 6.27 µM; with NCI-H522 lung, 6.62 µM; with SF-539 CNS it was 4.85 µM; in the assay with TK-10 renal, 9.6 µM.
Consider `O=C(CSSCC(=O)c1ccc(Cl)cc1)c1ccc(Cl)cc1`, for which the GI50 with A498 renal was 9.77 µM; in the assay with BT-549 breast, 8.92 µM; in the assay with HCC-2998 colon, 8.56 µM; with HT29 colon it was 3.42 µM; in the assay with LOX IMVI melanoma, 2.6 µM; in the assay on MCF7 breast it was 3.76 µM. The GI50 was 8.22 µM in the assay with NCI-H23 lung, 3.56 µM in the assay on NCI-H522 lung, 7.36 µM in the assay with SF-539 CNS and 3.83 µM in the assay with TK-10 renal. Further, the TGI came out at 23 µM with A498 renal; 39.9 µM in the assay with BT-549 breast; 22.2 µM with HCC-2998 colon; 17 µM in the assay on HT29 colon; 8.2 µM in the assay with LOX IMVI melanoma; 17.8 µM in the assay on MCF7 breast. In addition, the TGI with NCI-H23 lung was found to be 30.3 µM; with NCI-H522 lung, 15.3 µM; in the assay with SF-539 CNS it was 23.8 µM; with TK-10 renal, 13.8 µM.
Regarding `O=[N+]([O-])c1ccc(Sc2cccc[n+]2[O-])c2nonc12`, the GI50 is 4.88 µM in the assay with A498 renal; 12.7 µM in the assay with BT-549 breast; 4.58 µM in the assay on HCC-2998 colon; 3.4 µM with HT29 colon; 3.28 µM in the assay with LOX IMVI melanoma; 1.77 µM in the assay with MCF7 breast. For the same molecule, the GI50 is 7.97 µM with NCI-H23 lung, 1.78 µM with NCI-H522 lung, 19.3 µM in the assay on SF-539 CNS and 8.41 µM with TK-10 renal. In addition, the concentration for total growth inhibition (TGI) worked out at 91.9 µM in the assay with A498 renal; 25.8 µM in the assay on BT-549 breast; 16.9 µM in the assay on HCC-2998 colon; 29.4 µM with HT29 colon; 11.7 µM with LOX IMVI melanoma; 10.8 µM with MCF7 breast. Further, the TGI in the assay with NCI-H23 lung turned out to be 26.8 µM; in the assay on NCI-H522 lung it was 3.79 µM; in the assay with SF-539 CNS, 54.3 µM; in the assay with TK-10 renal it was 20.8 µM.
With `COc1ccc(C2=C(c3ccc(OC)cc3)C(=O)OC2)cc1`, the GI50 in the assay on A498 renal was 0.528 µM; in the assay on BT-549 breast, 11.7 µM; in the assay on HCC-2998 colon, 0.264 µM; in the assay on HT29 colon, 0.437 µM; with LOX IMVI melanoma, 0.964 µM; with MCF7 breast, 0.492 µM. Besides, the GI50 is 3.46 µM in the assay on NCI-H23 lung, 0.342 µM with NCI-H522 lung, 0.745 µM in the assay on SF-539 CNS and 1.1 µM in the assay on TK-10 renal. Further, the TGI in the assay on A498 renal was 3.66 µM; with BT-549 breast it was over 100 µM; in the assay with HCC-2998 colon, 14.5 µM; in the assay on HT29 colon, over 100 µM; in the assay on LOX IMVI melanoma, 15.1 µM; with MCF7 breast, 16.2 µM. Moreover, the TGI was 30.8 µM with NCI-H23 lung, 1.85 µM in the assay on NCI-H522 lung, 6.67 µM in the assay on SF-539 CNS and 8.01 µM in the assay with TK-10 renal.
On to `C[C@H]1C[C@@H](n2c(Nc3ccc(OC(F)(F)F)cc3)nc3cc(CCC(=O)O)ccc32)CC(C)(C)C1`, for which the GI50 with A498 renal was 11.1 µM; in the assay with BT-549 breast, 3.13 µM; in the assay with HCC-2998 colon, 6.68 µM; in the assay on HT29 colon it was 14.6 µM; in the assay on LOX IMVI melanoma, 11.8 µM; in the assay with MCF7 breast it was 6.29 µM. For the same molecule, the GI50 with NCI-H23 lung is 12.9 µM; with NCI-H522 lung, 14 µM; in the assay with SF-539 CNS, 13.1 µM; in the assay with TK-10 renal, 20.6 µM. The TGI was determined as 23.2 µM in the assay with A498 renal; 12 µM in the assay with BT-549 breast; 20.8 µM in the assay on HCC-2998 colon; 30.9 µM with HT29 colon; 25.9 µM with LOX IMVI melanoma; 22.6 µM in the assay on MCF7 breast. Further, the TGI in the assay with NCI-H23 lung is 30.5 µM; in the assay on NCI-H522 lung, 33.2 µM; in the assay with SF-539 CNS, 37.7 µM; in the assay on TK-10 renal, 46.9 µM.
In the case of `COc1ccc2nc3cc(Cl)ccc3c(Nc3ccccc3-c3ccccc3Nc3c4ccc(Cl)cc4nc4ccc(OC)cc34)c2c1`, the TGI in the assay on A498 renal was 97.5 µM; in the assay with BT-549 breast, 42.2 µM; in the assay on HCC-2998 colon, over 67.5 µM; with HT29 colon it was 55.7 µM; in the assay with LOX IMVI melanoma it was 47.4 µM; with MCF7 breast, over 100 µM. For the same molecule, the TGI with NCI-H23 lung was over 100 µM; with NCI-H522 lung it was 32 µM; with SF-539 CNS it was over 67.2 µM; in the assay on TK-10 renal, over 100 µM.
On to `O=C1/C(=C/c2ccc(F)cc2)COc2ccc(O)c(O)c21`, for which the GI50 in the assay with A498 renal was 12.5 µM; in the assay on BT-549 breast, 2.96 µM; in the assay on HCC-2998 colon, 1.8 µM; in the assay with HT29 colon, 3.37 µM; in the assay with LOX IMVI melanoma, 1.03 µM; in the assay on MCF7 breast, 1.02 µM. The GI50 in the assay with NCI-H23 lung was 2.65 µM; in the assay with NCI-H522 lung, 0.304 µM; with SF-539 CNS it was 1.28 µM; in the assay with TK-10 renal, 4.74 µM. The TGI with A498 renal was 28.3 µM; in the assay on BT-549 breast, 8.73 µM; in the assay on HCC-2998 colon it was 3.57 µM; in the assay on HT29 colon, over 100 µM; in the assay on LOX IMVI melanoma, 2.39 µM; in the assay with MCF7 breast, over 100 µM. For the same molecule, the concentration for total growth inhibition (TGI) was 13.7 µM in the assay on NCI-H23 lung, 1.24 µM in the assay with NCI-H522 lung, 2.7 µM in the assay with SF-539 CNS and over 100 µM with TK-10 renal.
For the molecule `CN1CCN(C2=C(Cl)C(=O)c3ccccc3C2=O)CC1`, the concentration for 50% growth inhibition (GI50) in the assay with A498 renal is 0.0132 µM; in the assay on BT-549 breast, 1.97 µM; in the assay on HCC-2998 colon, 2.05 µM; in the assay on HT29 colon, 1.94 µM; with LOX IMVI melanoma it was 1.6 µM; in the assay with MCF7 breast, 1.45 µM. Also, the GI50 in the assay on NCI-H23 lung was 1.72 µM; in the assay with NCI-H522 lung, 0.38 µM; in the assay with SF-539 CNS it was 2.08 µM; in the assay with TK-10 renal it was 1.71 µM. For the same molecule, the TGI in the assay with A498 renal came out at 4.25 µM; in the assay with BT-549 breast, 4.75 µM; in the assay with HCC-2998 colon, 4.51 µM; in the assay on HT29 colon, 3.7 µM; in the assay on LOX IMVI melanoma it was 3 µM; in the assay on MCF7 breast, 3.16 µM. Moreover, the TGI worked out at 3.65 µM in the assay with NCI-H23 lung, 1.64 µM in the assay on NCI-H522 lung, 4.47 µM in the assay with SF-539 CNS and 3.29 µM with TK-10 renal.
As to `NC(CSC(c1ccccc1)(c1ccccc1)c1ccccc1)C(=O)O` (centres undefined), the GI50 with A498 renal was 0.493 µM; in the assay with BT-549 breast it was 4.88 µM; in the assay with HCC-2998 colon, 2.52 µM and 2.64 µM; in the assay on HT29 colon it was 3.71 µM and 3.28 µM; in the assay with LOX IMVI melanoma, 6.26 µM and 4.14 µM; with MCF7 breast, 0.665 µM and 0.416 µM. The GI50 was 0.524 µM and 0.413 µM with NCI-H522 lung; 0.874 µM and 0.459 µM with SF-539 CNS; 6.22 µM with TK-10 renal. For the same molecule, the concentration for total growth inhibition (TGI) is 51.9 µM and 43 µM in the assay with A498 renal; 57.8 µM and > 100 µM in the assay with BT-549 breast; 7.4 µM and 10.8 µM and 23.9 µM in the assay on HCC-2998 colon; 27.3 µM and 14.6 µM in the assay with HT29 colon; 24.3 µM and > 100 µM in the assay with LOX IMVI melanoma; 67.8 µM and > 100 µM with MCF7 breast. For the same molecule, the TGI in the assay with NCI-H23 lung is 7.15 µM and 51.7 µM; in the assay on NCI-H522 lung it was 2.2 µM and 7.13 µM and 4.28 µM; in the assay with SF-539 CNS, 10.6 µM and 3.01 µM and 3.26 µM; with TK-10 renal it was 83.5 µM.
For the molecule `NCC(=O)Nc1ccc(Cl)cc1C(=O)c1ccc[nH]1`, the TGI with A498 renal, with BT-549 breast, with HCC-2998 colon, in the assay on HT29 colon, with LOX IMVI melanoma and with MCF7 breast was over 100 µM in each case. For the same molecule, the total growth inhibition concentration (TGI) in the assay with NCI-H23 lung is over 100 µM; in the assay with NCI-H522 lung, 50.1 µM; in the assay with SF-539 CNS it was over 100 µM; in the assay on TK-10 renal, over 100 µM.

A word on the TGI: it is the concentration giving total growth inhibition. Broadly, the GI50 is the concentration giving 50% growth inhibition.
